The text below walks through data of patent publication US20260201008A1, “SECRETIN-DERIVED GLP1R SELECTIVE AGONISTS” (GUBRA A/S, priority 2023, published 2026).

In brackets after ≈: the same amount, converted by molar mass. Where two headings read alike, the source gives them in different places. Numbered stars: 1 amine (or outer) side, 2 acyl side, 3 side chain; on linkers, the order of the positions; unused ones are H or OH. Square brackets hold non-standard residues; d marks the D form. Side chains are listed from the residue outwards. Ends that are not written are not given here. Peptide text beside a SMILES is read from it. * marks the point of attachment. C20 diacid = O=C(O)CCCCCCCCCCCCCCCCCCC(=O)*; γGlu = O=C(O)[C@H](CCC(=O)[*:2])N[*:1]; AEEA = NCCOCCOCC(=O)O; Aib = CC(C)(N)C(=O)O

By solubility is commonly meant how much of the substance goes into solution per volume.

Series [1] deals with GLP1R (Homo sapiens, UniProt P43220). Briefly: hGLP1R potency, cAMP accumulation in CHO-K1 cells stably overexpressing hGLP1R. In kind it is cell-based. The conditions noted are these: for Selectivity: SCTR EC50/GLP1R EC50 ratio. On the set-up: host or cells: CHO-K1. An outline of the steps:
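TR-FRET cAMP read-out, one hour after reagent addition, following 30 min compound exposure at RT in DPBS/0.05% casein/0.5 mM IBMX. Crude peptides: 5 points, 10-fold steps, n=1. Purified peptides: 11 points, 3-fold steps, n=2. EC50 fitted with a variable-slope sigmoid.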
(Changes in cAMP serve as a functional read-out for many G protein-coupled receptors.)

The nature of series [2]: Solubility of purified peptides. In kind it is physicochemical. The conditions noted are these: 100 mM phosphate buffer, target pH 7.0, target approximately 10 mg/mL. As for the experimental part: Solubility was tested in the following vehicles: 100 mM phosphate buffer facilitating a target pH of 7.0. Samples were directly dissolved in Mini-UniPrep Syringeless Filter 0.45 μm unit (Whatman). For the desired concentration, such as a concentration of approximately 10 mg/mL, 1050 nmol of peptide was dissolved in 400 μL vehicle. Samples were incubated for at least 1 h at room temperature on a rocking table. The pH was measured and adjusted. Samples were left on the rocking table for an additional hour before a second pH measurement and adjustment. Visual inspection was performed and noted before the filter was pushed. The concentration of peptide in the filtrate was determined using CAD (Charged Aerosol Detection), double determination was done for each sample. The measured concentration was reported in μM. Furthermore, the pH of the filtrate was measured and reported. Peptides with a measured concentration within +/−20% of target concentration are considered fully soluble.

Series [3] deals with SCTR (Homo sapiens, UniProt P47872). In words: hSCTR potency, cAMP accumulation in CHO-K1 cells stably overexpressing hSCTR. On the set-up: alternatively Euroscreen ES-712-AF; FAST-0161L; host or cells: CHO-K1. In kind it is cell-based. In outline:
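CHO-K1/hSCTR cells; DPBS + 0.05% casein + 0.5 mM IBMX; 30 min RT stimulation; cAMP by TR-FRET read at 1 h. Crude peptides: 5-point 10-fold dilutions, n=1. Purified: 11-point 3-fold dilutions, n=2. EC50 via variable-slope fit.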

Series [4] in a line: Thioflavin T fibril formation assay of purified peptides. In kind it is physicochemical. The conditions noted are these: 267 μM, phosphate buffer pH 7.0, 96 h at 40° C. As for the experimental part: Thioflavin T fibril formation assay: Peptides are dissolved as 267 μM in 50 mM phosphate buffer pH 7.0 for 2 h at room temperature on a rocking table. The samples were then divided into three replicates of 80 μl/well and mixed with 2 μl/well Thioflavin T (ThT) to a final concentration of 4 μM ThT in a black 384 well microplate with a clear bottom (Greiner #781096). The plate is inserted in a CLARIOstar Plus microplate reader (BMG Labtech) and fibril formation is measured as an increase in fluorescence emission at 480 nm (excitation at 450 nm) during 96 h at 40° C. with cycles of 5 min rest and 5 min linear shaking at 700 rpm.

A short description of series [5]: Turbidity of crude library peptides (absorbance at 600 nm). To be noted: Physical stability of peptides. In kind it is physicochemical. An outline of the steps: (§1)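 Fibril formation is scored as average ThT fluorescence from duplicate samples monitored for 72 h at 40° C with shaking stress. Turbidity is the absorbance at 600 nm taken before heating. Peptide concentration was 267 μM at pH 4.0 or pH 7.0.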

The nature of series [6]: Fibril formation of crude library peptides (Thioflavin T). In kind it is physicochemical. On the set-up: key: average ThT fluorescence emission at 480 nm (ex 450 nm), raw units. The conditions noted are these: Physical stability of peptides. An outline of the steps: as §1
The target of series [7] is human secretin receptor (hSCTR) (human, UniProt P47872 23-440). Briefly: cell-based or functional assay.
Sequence of human secretin receptor (hSCTR) (P47872 23-440): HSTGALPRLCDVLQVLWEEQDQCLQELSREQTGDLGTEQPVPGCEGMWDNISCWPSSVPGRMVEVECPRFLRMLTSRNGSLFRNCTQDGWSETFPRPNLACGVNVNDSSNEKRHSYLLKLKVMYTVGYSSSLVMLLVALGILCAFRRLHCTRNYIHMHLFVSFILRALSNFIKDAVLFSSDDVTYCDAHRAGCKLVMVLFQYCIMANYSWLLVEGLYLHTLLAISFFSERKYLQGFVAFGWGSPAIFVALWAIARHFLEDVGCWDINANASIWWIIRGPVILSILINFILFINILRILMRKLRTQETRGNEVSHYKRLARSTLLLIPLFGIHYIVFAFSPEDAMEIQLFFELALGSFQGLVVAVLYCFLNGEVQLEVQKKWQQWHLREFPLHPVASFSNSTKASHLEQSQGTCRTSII
Series [8] has as its target human GLP-1 receptor (hGLP1R) (human, UniProt P43220 24-463). In words: cell-based or functional assay.

Sequence of SCTR (P47872 23-440): as above
Sequence of GLP1R (P43220 24-463): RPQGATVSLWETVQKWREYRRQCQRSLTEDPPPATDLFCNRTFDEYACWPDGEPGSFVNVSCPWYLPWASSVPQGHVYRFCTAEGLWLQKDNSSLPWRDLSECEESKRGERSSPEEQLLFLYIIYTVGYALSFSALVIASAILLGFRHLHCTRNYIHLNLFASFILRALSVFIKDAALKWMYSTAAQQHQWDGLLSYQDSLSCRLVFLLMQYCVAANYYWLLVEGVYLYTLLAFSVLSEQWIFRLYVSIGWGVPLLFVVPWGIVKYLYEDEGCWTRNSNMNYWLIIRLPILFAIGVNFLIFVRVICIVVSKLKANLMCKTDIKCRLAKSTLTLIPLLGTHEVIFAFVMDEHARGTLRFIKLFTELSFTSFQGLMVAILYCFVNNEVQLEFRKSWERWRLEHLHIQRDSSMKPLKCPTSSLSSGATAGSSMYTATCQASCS

Take `CC(C)C[C@H](NC(=O)[C@H](CC(C)C)NC(=O)[C@H](CCCNC(=N)N)NC(=O)[C@H](CO)NC(=O)[C@@H](NC(=O)[C@H](CC(=O)O)NC(=O)[C@H](CO)NC(=O)[C@@H](NC(=O)[C@H](Cc1ccccc1)NC(=O)[C@@H](NC(=O)CNC(=O)[C@H](CCC(=O)O)NC(=O)C(C)(C)NC(=O)[C@@H](N)Cc1c[nH]cn1)[C@@H](C)O)[C@@H](C)O)C(C)C)C(=O)N[C@@H](CCC(=O)O)C(=O)N[C@@H](CCC(=O)O)C(=O)N[C@@H](C)C(=O)NC(C)(C)C(=O)N[C@@H](CC(C)C)C(=O)N[C@@H](CCC(N)=O)C(=O)N[C@@H](CCCNC(=N)N)C(=O)N[C@@H](Cc1ccccc1)C(=O)N[C@@H](CC(C)C)C(=O)N[C@@H](CCC(=O)O)C(=O)N[C@@H](CCCCNC(=O)COCCOCCNC(=O)COCCOCCNC(=O)CC[C@H](NC(=O)CCCCCCCCCCCCCCCCCCC(=O)O)C(=O)O)C(=O)N[C@@H](CC(C)C)C(=O)N[C@H](C(=O)N[C@@H](CCC(=O)O)C(=O)N[C@@H](C)C(=O)N[C@@H](C)C(N)=O)C(C)C` [compound 212] (H-H[Aib]EGTFTSDVSRLLEEA[Aib]LQRFLEK([AEEA-AEEA-γGlu-C20 diacid])LVEAA-NH2): the Selectivity in series [1] (Table 2, extended 30 amino acid peptides) amounted to 2864; in series [1] (purified peptides), 2857. In addition, the EC50 is 0.02 nM in series [1] (Table 2, extended 30 amino acid peptides, read-out: PEC50 hGLPR1 (converted)) and 63.1 nM in series [3] (Table 2, extended 30 amino acid peptides, read-out: pEC50 hSCTR (converted)). In series [2], the solubility was 8400 µg/mL (≈ 2050 µM). Further, in series [4], the Fibril formation entry is reported as “No”.

As to `CC(C)C[C@H](NC(=O)[C@H](Cc1ccccc1)NC(=O)[C@H](CCCNC(=N)N)NC(=O)[C@H](CCC(N)=O)NC(=O)[C@H](CC(C)C)NC(=O)C(C)(C)NC(=O)[C@H](C)NC(=O)[C@H](CCC(=O)O)NC(=O)[C@H](CCC(=O)O)NC(=O)[C@H](CCCCNC(=O)COCCOCCNC(=O)COCCOCCNC(=O)CC[C@H](NC(=O)CCCCCCCCCCCCCCCCCCC(=O)O)C(=O)O)NC(=O)[C@H](CC(C)C)NC(=O)[C@H](CCC(=O)O)NC(=O)[C@H](CO)NC(=O)[C@@H](NC(=O)[C@H](CC(=O)O)NC(=O)[C@H](CO)NC(=O)[C@@H](NC(=O)[C@H](Cc1ccccc1)NC(=O)[C@@H](NC(=O)CNC(=O)[C@H](CCC(=O)O)NC(=O)C(C)(C)NC(=O)[C@@H](N)Cc1c[nH]cn1)[C@@H](C)O)[C@@H](C)O)C(C)C)C(=O)N[C@@H](CCC(=O)O)C(=O)N[C@@H](Cc1c[nH]cn1)C(=O)N[C@@H](CC(C)C)C(=O)N[C@H](C(N)=O)C(C)C` [compound 168] (H-H[Aib]EGTFTSDVSELK([AEEA-AEEA-γGlu-C20 diacid])EEA[Aib]LQRFLEHLV-NH2), in series [1] (purified peptides), the Selectivity was determined as 8333. For the same molecule, the EC50 in series [1] (cAMP accumulation, CHO-K1 cells overexpressing hGLP1R, read-out: hGLP1R pEC50 (converted)) was 0.00631 nM; in series [3] (cAMP accumulation, CHO-K1 cells overexpressing hSCTR, read-out: hSCTR pEC50 (converted)) it was 50.1 nM; in series [3] (purified peptides, read-out: hSCTR EC50) it was 100 nM. Besides, the “SCTR EC50/GLP1R EC50 ratio” value in series [1] (selectivity for hGLP1R over hSCTR, cAMP accumulation in CHO-K1 cells) is on record as 6853. Further, the “Turbidity (pH 7)” value in series [5] amounted to 0.08. For the same molecule, the Fibril formation is on record as 2998 in series [6] and “No” in series [4]. In addition, the solubility in series [2] turned out to be 9800 µg/mL (≈ 2560 µM).

B1: SEQ ID NO: 220 (peptide)
peptide: H[Aib]EGTFTSDVSRLLEGAALQRFIQWLV-NH2
modifications: N-terminus assumed
SMILES: CC[C@H](C)[C@H](NC(=O)[C@H](Cc1ccccc1)NC(=O)[C@H](CCCNC(=N)N)NC(=O)[C@H](CCC(N)=O)NC(=O)[C@H](CC(C)C)NC(=O)[C@H](C)NC(=O)[C@H](C)NC(=O)CNC(=O)[C@H](CCC(=O)O)NC(=O)[C@H](CC(C)C)NC(=O)[C@H](CC(C)C)NC(=O)[C@H](CCCNC(=N)N)NC(=O)[C@H](CO)NC(=O)[C@@H](NC(=O)[C@H](CC(=O)O)NC(=O)[C@H](CO)NC(=O)[C@@H](NC(=O)[C@H](Cc1ccccc1)NC(=O)[C@@H](NC(=O)CNC(=O)[C@H](CCC(=O)O)NC(=O)C(C)(C)NC(=O)[C@@H](N)Cc1c[nH]cn1)[C@@H](C)O)[C@@H](C)O)C(C)C)C(=O)N[C@@H](CCC(N)=O)C(=O)N[C@@H](Cc1c[nH]c2ccccc12)C(=O)N[C@@H](CC(C)C)C(=O)N[C@H](C(N)=O)C(C)C
Regarding B1, the “pEC50 hSCTR” value in series [7] is 7.2 -log M. Also, the “pEC50 hGLPR1” value in series [8] is 10.2 -log M.

B2: SEQ ID NO: 218 (peptide)
peptide: H[Aib]EGTFTSDISRLLEGAALQRFIQWLV-NH2
modifications: N-terminus assumed
SMILES: CC[C@H](C)[C@H](NC(=O)[C@H](Cc1ccccc1)NC(=O)[C@H](CCCNC(=N)N)NC(=O)[C@H](CCC(N)=O)NC(=O)[C@H](CC(C)C)NC(=O)[C@H](C)NC(=O)[C@H](C)NC(=O)CNC(=O)[C@H](CCC(=O)O)NC(=O)[C@H](CC(C)C)NC(=O)[C@H](CC(C)C)NC(=O)[C@H](CCCNC(=N)N)NC(=O)[C@H](CO)NC(=O)[C@@H](NC(=O)[C@H](CC(=O)O)NC(=O)[C@H](CO)NC(=O)[C@@H](NC(=O)[C@H](Cc1ccccc1)NC(=O)[C@@H](NC(=O)CNC(=O)[C@H](CCC(=O)O)NC(=O)C(C)(C)NC(=O)[C@@H](N)Cc1c[nH]cn1)[C@@H](C)O)[C@@H](C)O)[C@@H](C)CC)C(=O)N[C@@H](CCC(N)=O)C(=O)N[C@@H](Cc1c[nH]c2ccccc12)C(=O)N[C@@H](CC(C)C)C(=O)N[C@H](C(N)=O)C(C)C
Turning to B2, the “pEC50 hSCTR” value in series [7] is 7.8 -log M. The “pEC50 hGLPR1” value in series [8] is 10.4 -log M.

B3: SEQ ID NO: 222 (peptide)
peptide: H[Aib]EGTFTSD[Aib]SRLLEGAALQRFIQWLV-NH2
modifications: N-terminus assumed
SMILES: CC[C@H](C)[C@H](NC(=O)[C@H](Cc1ccccc1)NC(=O)[C@H](CCCNC(=N)N)NC(=O)[C@H](CCC(N)=O)NC(=O)[C@H](CC(C)C)NC(=O)[C@H](C)NC(=O)[C@H](C)NC(=O)CNC(=O)[C@H](CCC(=O)O)NC(=O)[C@H](CC(C)C)NC(=O)[C@H](CC(C)C)NC(=O)[C@H](CCCNC(=N)N)NC(=O)[C@H](CO)NC(=O)C(C)(C)NC(=O)[C@H](CC(=O)O)NC(=O)[C@H](CO)NC(=O)[C@@H](NC(=O)[C@H](Cc1ccccc1)NC(=O)[C@@H](NC(=O)CNC(=O)[C@H](CCC(=O)O)NC(=O)C(C)(C)NC(=O)[C@@H](N)Cc1c[nH]cn1)[C@@H](C)O)[C@@H](C)O)C(=O)N[C@@H](CCC(N)=O)C(=O)N[C@@H](Cc1c[nH]c2ccccc12)C(=O)N[C@@H](CC(C)C)C(=O)N[C@H](C(N)=O)C(C)C
Turning to B3, in series [7], the “pEC50 hSCTR” value was 6.5 -log M. The “pEC50 hGLPR1” value in series [8] was 9.9 -log M.

B4: SEQ ID NO: 221 (peptide)
peptide: H[Aib]EGTFTSDPSRLLEGAALQRFIQWLV-NH2
modifications: N-terminus assumed
SMILES: CC[C@H](C)[C@H](NC(=O)[C@H](Cc1ccccc1)NC(=O)[C@H](CCCNC(=N)N)NC(=O)[C@H](CCC(N)=O)NC(=O)[C@H](CC(C)C)NC(=O)[C@H](C)NC(=O)[C@H](C)NC(=O)CNC(=O)[C@H](CCC(=O)O)NC(=O)[C@H](CC(C)C)NC(=O)[C@H](CC(C)C)NC(=O)[C@H](CCCNC(=N)N)NC(=O)[C@H](CO)NC(=O)[C@@H]1CCCN1C(=O)[C@H](CC(=O)O)NC(=O)[C@H](CO)NC(=O)[C@@H](NC(=O)[C@H](Cc1ccccc1)NC(=O)[C@@H](NC(=O)CNC(=O)[C@H](CCC(=O)O)NC(=O)C(C)(C)NC(=O)[C@@H](N)Cc1c[nH]cn1)[C@@H](C)O)[C@@H](C)O)C(=O)N[C@@H](CCC(N)=O)C(=O)N[C@@H](Cc1c[nH]c2ccccc12)C(=O)N[C@@H](CC(C)C)C(=O)N[C@H](C(N)=O)C(C)C
B4: the “pEC50 hSCTR” value in series [7] was 5.3 -log M. For the same molecule, in series [8], the “pEC50 hGLPR1” value is 8.6 -log M.
